Test [1] concerns MGC803 cells of stomach cancer. Format: in vivo, BALB/c nude mice. Particulars: for in vivo tumor growth inhibition rate: mouse, 15 mg/kg. The method, then: (§1) • (1) Massively culture SCC4 cells of head and neck cancer, SW579 cells of thyroid cancer, A549 cells of lung cancer, TE13 cells of esophageal squamous cell carcinoma, MGC803 cells of stomach cancer, MDA-MB-231 cells of breast cancer, UOK262 cells of kidney cancer, and A431 cells of skin cancer of human, digest with a 0.25% pancreatin solution, centrifuge the cell suspension at 1,000 rpm for 5 min after termination of digestion, re-suspend the cells by serum-free DMEM culture medium, then count the cells and adjust cell concentration to 5×10^7 cells/ml; • (2) Inoculate each nude mouse (female mice at the age of 4-6 weeks and with a weight of 14-16 g were ordered and adaptively reared for 1 week in an SPF animal breeding room) with 100 μl of the cell suspension of the corresponding group in the left armpit, and the number of cells injected is 5×10^6; • (3) After inoculation, the tumor growth at the inoculation sites of nude mice was closely observed. On the 7th day after inoculation, white scabs appeared at the inoculation sites, which could move subcutaneously after being touched. With the growth of tumor tissue, hard tumor masses were gradually formed at the inoculation sites. On about the 14th day, the average volume of the tumor tissue reached 100 mm^3. BALB/c nude mice were randomly divided into three groups (the normal saline group was a blank control group, the micropeptide HMMW at a dose of 10 mg/kg was a low-dose group, and the micropeptide HMMW at a dose of 15 mg/kg was a high-dose group), 6 mice in each group, and the animals weighed 16-18 g at the beginning of administration; • (4) The volume of the transplanted tumor was measured and recorded every two days. The calculation formula of tumor volume (TV) is shown below: TV=0.5×a×b^2 • where, a is the length of the transplanted tumor (mm), and b is the width of the transplanted tumor (mm). • (1) Massively culture SCC4 cells of head and neck cancer, SW579 cells of thyroid cancer, A549 cells of lung cancer, TE13 cells of esophageal squamous cell carcinoma, MGC803 cells of stomach cancer, MDA-MB-231 cells of breast cancer, UOK262 cells of kidney cancer, and A431 cells of skin cancer of human, digest with a 0.25% pancreatin solution, centrifuge the cell suspension at 1,000 rpm for 5 min after termination of digestion, re-suspend the cells by serum-free DMEM culture medium, then count the cells and adjust cell concentration to 5×10^7 cells/ml; • (2) Inoculate each nude mouse (female mice at the age of 4-6 weeks and with a weight of 14-16 g were ordered and adaptively reared for 1 week in an SPF animal breeding room) with 100 μl of the cell suspension of the corresponding group in the left armpit, and the number of cells injected is 5×10^6; • (3) After inoculation, the tumor growth at the inoculation sites of nude mice was closely observed. On the 7th day after inoculation, white scabs appeared at the inoculation sites, which could move subcutaneously after being touched. With the growth of tumor tissue, hard tumor masses were gradually formed at the inoculation sites. On about the 14th day, the average volume of the tumor tissue reached 100 mm^3. BALB/c nude mice were randomly divided into three groups (the normal saline group was a blank control group, and each of micropeptides HMMW I to IX formed a group at a dose of 15 mg/kg), 6 mice in each group, and the animals weighed 16-18 g at the beginning of administration; • (4) The volume of the transplanted tumor was measured and recorded every two days. The calculation formula of tumor volume (TV) is shown below: TV=0.5×a×b^2 • where, a is the length of the transplanted tumor (mm), and b is the width of the transplanted tumor (mm).

Test [2] has as its system TE13 cells of esophageal squamous cell carcinoma. Format: in vivo, BALB/c nude mice. The following applies: for in vivo tumor growth inhibition rate: mouse, 15 mg/kg. The method, then: as §1
Test [3] relates to A549 cells of lung cancer. The format is in vivo, BALB/c nude mice. The following applies: for in vivo tumor growth inhibition rate: mouse, 15 mg/kg. The method, then: as §1
In test [4] the test system is SCC4 cells of head and neck cancer. Format: in vivo, BALB/c nude mice. Particulars: for in vivo tumor growth inhibition rate: mouse, 15 mg/kg. The method, then: as §1
Test [5] concerns SW579 cells of thyroid cancer. Format: in vivo, BALB/c nude mice. The following applies: for in vivo tumor growth inhibition rate: mouse, 15 mg/kg. The method, then:
as §1

Test [6] deals with UOK262 cells of kidney cancer. The format is in vivo, BALB/c nude mice. The following applies: for in vivo tumor growth inhibition rate: mouse, 15 mg/kg. The method, then:
as §1

Test [7] has as its system A431 cells of skin cancer. Format: in vivo, BALB/c nude mice. The following applies: for in vivo tumor growth inhibition rate: mouse, 15 mg/kg. The method, then:
as §1

In test [8] the test system is MDA-MB-231 cells of breast cancer. The format is in vivo, BALB/c nude mice. The following applies: for in vivo tumor growth inhibition rate: mouse, 15 mg/kg. The procedure:
as §1

In test [9] the test system is MGC803 cells of stomach cancer. In words: transwell migration test. The format is cell-based, human. The following applies: 24 h. The method, then: Inoculate SCC4 cells of head and neck cancer, SW579 cells of thyroid cancer, A549 cells of lung cancer, TE13 cells of esophageal squamous cell carcinoma, MGC803 cells of stomach cancer, MDA-MB-231 cells of breast cancer, UOK262 cells of kidney cancer, and A431 cells of skin cancer of human to transwell cells, 100 μL per well, and meanwhile add micropeptides HMMW I to IX at different doses to every cell. Add 0.6 mL of complete medium containing 10% FBS to the transwell cells to stimulate cell migration, and culture in 5% CO2 at 37 DEG C. for 24 h. Discard the medium in the wells, fix with 90% alcohol at room temperature for 30 min, stain with 0.1% crystal violet at room temperature for 10 min, rinse with clear water, gently wipe off the non-migrated cells in the upper layer with a cotton swab, observe under a microscope and select four fields of view to take pictures and count. Calculate the migration inhibition rate (MIR) of the cells according to the following formula: […]
The test was repeated independently three times. Mean±SD was calculated based on the test results. Statistical t test was done. Here, “the test was repeated independently three times” means that every dose of any type of cells was tested repeatedly three times, and then the above formula was used to calculate the number of migrated cells (Mean±SD). Value P was used to express statistical difference. The statistical significance of the results is a method for estimating how true the results are (the totality can be represented), *P<0.05 means significant difference, and **P<0.01 means very significant difference.

No end group written: not given here.

Consider “MERAGVPGFSPRRSSVEAKMQSTSCSVRKSSTVTAWPAVVLLLHTSKDDEE-OH [HMMW-II]”, for which the “in vivo tumor growth inhibition rate” value in [1] is 70.08%; in [2], 62.86%; in test [3] it was 71.32%; in test [4] it was 66.24%; in [5], 64.76%; in test [6], 63.12%. Also, the “in vivo tumor growth inhibition rate” value in test [7] is on record as 71.22%; in test [8], 68.95%. In addition, the results for the migration inhibition rate in test [9] (dose 1 μM), in test [9] (dose 4 μM) and in [9] (dose 16 μM) were 25.64%, 52.41% and 73.82%, respectively.
On to “MERAGVPGFSPRRSSVEAKMQSTSCSVRKSSTVTAWPAVVLLLSWGKDDEE-OH [HMMW-IV]”, for which the “in vivo tumor growth inhibition rate” value in test [1] is 67.52%; in [2], 61.41%; in test [3], 68.25%; in [4] it was 71.72%; in test [5] it was 72.13%; in test [6], 64.70%. Moreover, the “in vivo tumor growth inhibition rate” value is given as 71.71% in [7] and 65.93% in test [8]. The migration inhibition rate in test [9] (dose 1 μM) was determined as 25.60%; in [9] (dose 4 μM), 52.45%; in [9] (dose 16 μM) it was 74.80%.
Regarding “MERAGVPGFSPRRSSVEAKMQSTSCSVRKSSTVTAWPAVVLLLSWGQRDEE-OH [HMMW-VI]”, the “in vivo tumor growth inhibition rate” value in test [1] is 66.51%; in [2], 65.56%; in [3] it was 65.27%; in [4], 73.54%; in test [5] it was 66.79%; in test [6], 65.19%. The “in vivo tumor growth inhibition rate” value was 68.25% in [7] and 71.18% in test [8]. In addition, the migration inhibition rate worked out at 26.64% in [9] (dose 1 μM), 51.45% in [9] (dose 4 μM) and 72.80% in test [9] (dose 16 μM).
In the case of “MERAGVPGFSPRRSSVEAKMQSTSCSVRKSSTVTAWPAVVLLLSWGQRRGE-OH [HMMW-VIII]”, the “in vivo tumor growth inhibition rate” value in [1] turned out to be 69.38%; in test [2], 68.81%; in test [3], 69.30%; in test [4], 68.24%; in test [5], 71.76%; in test [6], 65.15%. The “in vivo tumor growth inhibition rate” value in test [7] was found to be 68.21%; in [8] it was 69.82%. Moreover, the migration inhibition rate in test [9] (dose 1 μM) stood at 24.60%; in test [9] (dose 4 μM) it was 53.43%; in [9] (dose 16 μM) it was 73.81%.
Take “MERAGVPGFSPRRSSVEAKMQSTSCSVRKSSTVTAWPAVVLLLSWGQRRGG-OH [HMMW-I]”: the “inhibition of tumorigenicity in vivo” value in test [1] (MGC803, nude mice, 10 and 15 mg/kg, vs normal saline, dose-dependent (Embodiment 6)) is reported as “significantly inhibit”; in test [2] (TE13, nude mice, 10 and 15 mg/kg, vs normal saline, dose-dependent (Embodiment 6)), “significantly inhibit”; in [3] (A549, nude mice, 10 and 15 mg/kg, vs normal saline, dose-dependent (Embodiment 6)) it was “significantly inhibit”; in test [4] (SCC4, nude mice, 10 and 15 mg/kg, vs normal saline, dose-dependent (Embodiment 6)), “significantly inhibit”; in test [5] (SW579, nude mice, 10 and 15 mg/kg, vs normal saline, dose-dependent (Embodiment 6)), “significantly inhibit”; in test [6] (UOK262, nude mice, 10 and 15 mg/kg, vs normal saline, dose-dependent (Embodiment 6)) it was “significantly inhibit”. For the same substance, the “inhibition of tumorigenicity in vivo” value in test [7] (A431, nude mice, 10 and 15 mg/kg, vs normal saline, dose-dependent (Embodiment 6)) is on record as “significantly inhibit”; in [8] (MDA-MB-231, nude mice, 10 and 15 mg/kg, vs normal saline, dose-dependent (Embodiment 6)), “significantly inhibit”. The “in vivo tumor growth inhibition rate” value in test [1] is given as 68.12%; in test [2] it was 65.43%; in [3] it was 69.23%; in test [4], 72.56%; in [5], 66.63%; in test [6], 63.80%. The results for the “in vivo tumor growth inhibition rate” value in test [7] and in test [8] were 62.74% and 67.97%, respectively. The migration inhibition rate in [9] (dose 1 μM) amounted to 27.61%; in test [9] (dose 4 μM), 53.45%; in test [9] (dose 16 μM) it was 76.80%.
Regarding “MGRAGVPGFSPRRSSVEAKMQSTSCSVRKSSTVTAWPAVVLLLSWGQRRGG-OH [HMMW-IX]”, the “in vivo tumor growth inhibition rate” value is 68.61% in test [1]; 65.31% in [2]; 69.09% in test [3]; 71.84% in test [4]; 67.89% in test [5]; 65.23% in test [6]. Besides, the results for the “in vivo tumor growth inhibition rate” value in [7] and in test [8] were 64.33% and 69.36%, respectively. In addition, the values for the migration inhibition rate in test [9] (dose 1 μM), in [9] (dose 4 μM) and in test [9] (dose 16 μM) were 25.61%, 51.45% and 74.80%, respectively.
For the substance “MGSTGVPGFSPRRSSVEAKMQSTSCSVRKSSTVTAWPAVVLLLSWGQRRGG-OH [HMMW-VII]”, the “in vivo tumor growth inhibition rate” value in test [1] is 65.11%; in test [2], 71.23%; in [3] it was 69.13%; in [4], 72.75%; in [5] it was 68.63%; in test [6] it was 64.37%. For the same substance, the “in vivo tumor growth inhibition rate” value in test [7] was 67.70%; in test [8], 68.91%. Moreover, the migration inhibition rate is reported as 26.60% in test [9] (dose 1 μM), 51.31% in test [9] (dose 4 μM) and 70.62% in test [9] (dose 16 μM).

(Values after US12565522B2, “Micropeptide HMMW and application thereof” (NANJING ANJI BIOTECHNOLOGY CO., LTD., priority 2019, dated 2026).)
